Values quoted from earlier work in US20080254098A1, “Neural tube birth defect reduction with folic acid delivery in catamenial hygiene products” (priority 2007, published 2008).

Legend:
[1] = red blood cell folate
[2] = Norway; daily folic acid supplements of 0.4 mg or more
[3] = basis of the recommended daily intake of 2 mcg to 3 mcg

Compound	biological half-life [1]	births with neural tube defects (Nova Scotia, Canada, 1998-2000, after fortification began in 1998, 2.58 per 1000 in 1991-1997 before it)	percent of women with one previous neural tube defect pregnancy who had a lower risk of another child with this birth defect (Wald 1991, prescription doses of folic acid versus placebo) [%]	reduction of incidence of neural tube defects by adequate supplementing with folic acid (current estimate, depends on local dietary habits and ethnicity)	reduction of risk of cleft lip, with or without cleft palate [2] [%]	absorption rate [3] [%]
Nc1nc2ncc(CNc3ccc(C(=O)N[C@@H](CCC(=O)O)C(=O)O)cc3)nc2c(=O)[nH]1 [folic acid]	approximately 8 weeks	1.17 per 1,000	72	50%-70%	40	
cyanocobalamin [vitamin B12]						50
